The source of these data is patent publication US20040049807A1, “Fatty acid desaturase gene and protein for modulating activation of defense signaling pathways in plants” (priority 2003, published 2004).

The test system of data set [1] is PR-1, BGL2 and PR-5 gene transcripts. Briefly: PR gene expression after chemical treatment of plants (northern blot). Type of data set: in vivo, Arabidopsis. On the procedure:
Chemical treatment of plants. Four-week-old plants were sprayed and sub-irrigated with a solution of SA […] or BTH […] in water as previously described (Shah et al. 1997). As controls, plants were similarly treated with water. Leaves were harvested at the indicated times after treatment and quick-frozen in liquid nitrogen. Leaf samples were stored at −80° C.
RNA extraction, northern and dot blot analyses. Large-scale preparation of RNA from Arabidopsis was carried out Small-scale extraction of RNA from one or two leaves was performed in the TRIzol reagent (GIBCO-BRL, Gaithersburg, Md.) following manufacturer's instructions. Northern blot analysis and synthesis of random primed probes for PR-i, BGL2 and PR-5 were synthesized as described earlier (Shah et al. 1997).

A further data set has as its system PDF1.2. Briefly: PDF1.2 gene expression (northern blot). Type of data set: in vivo, Arabidopsis. How it is done:
FIG. 8. Expression of the SSI2 gene. (FIG. 8A) Histochemical staining of GUS activity in the leaves and inflorescence of transgenic plants expressing an SSI2::: GUS reporter gene. […] The control is a stained leaf from a wt plant. (FIG. 8B) Northern blot analysis of SSI2 (Nö), npr1-5, jar1-1 and ssi2 plants treated with water or 50 μM JA. RNA was extracted at 48 hour (h) post treatment and the blot was sequentially probed with SSI2, PDF1.2, and THI2.1. Ethidium bromide-stained rRNA served as a control for gel loading. (FIG. 8C) Northern blot analysis of plants inoculated with spores of Alternaria brassicicola. Mock (M) or fungal (A) inoculations were carried out as described previously (12). RNA was extracted at 72 h post inoculation and PDF1.2 gene expression was monitored. (FIG. 8D) Northern blot analysis of SSI2, npr1-5, jar1-1, NahG, etr1-1 and ssi2 plants treated with methanol or 50 μM MeJA. The plants were placed around a beaker containing methanol or MeJA diluted in methanol and covered with plastic wrap. RNA was prepared from leaves harvested at 48 h post treatment and analyzed for PDF1.2 gene expression.
FIG. 10. […] Oleic acid (18:1; 0.5 mM, Sigma) or water was injected into the leaves of SSI2 (Nö), ssi2 or ssi2 nahG plants followed by treatment with 50 μM JA or water. Eight to ten individual plants each of SSI2, ssi2 or ssi2 nahG were analyzed in two independent experiments. RNA was extracted at 48 h post treatment and PDF1.2 gene expression was monitored by northern blot analysis. Ethidium bromide-stained rRNA served as a control for gel loading.
RNA extraction and northern analyses. Small-scale extraction of RNA from one or two leaves was performed in the TRIzol reagent (GIBCO-BRL, Gaithersburg, Md.) following the manufacturer's instructions. Northern blot analysis and synthesis of random primed probes for PR-1, BGL2 and PR-5, PDF1.2 and THI2.1 were synthesized.

The test system of a further data set is root growth. Briefly: inhibition of root growth. Type of data set: in vivo, Arabidopsis. The conditions noted are these: ssi2 plants.
In a further data set the test system is B. cinerea. As to the kind of experiment: disease resistance to B. cinerea. It counts as in vivo, Arabidopsis. The note with it: exogenously applied, ssi2 or ssi2 nahG plants. How it is done:
FIG. 9. Analysis of disease resistance to B. cinerea. Infections with B. cinerea were carried out by wounding the leaves by needle pricks and subsequently spot inoculating spores at the wounded site. The number of pricks made per leaf were based on the leaf size and ranged from three per leaf for SSI2 (Nö) to one per leaf for the ssi2 mutant. Plants were treated with either water or 50 μM JA for 48 h prior to and throughout the infection and the inoculated leaves were photographed at 10 dpi.

A further data set concerns THI2.1. As to the kind of experiment: THI2.1 gene expression (northern blot). It counts as in vivo, Arabidopsis. The note with it: ssi2 plants. On the procedure:
FIG. 8. Expression of the SSI2 gene. (FIG. 8A) Histochemical staining of GUS activity in the leaves and inflorescence of transgenic plants expressing an SSI2::: GUS reporter gene. A 1631 bp fragment containing the SSI2 promoter was transcriptionally fused upstream of GUS in pBI121 and three independent transgenic lines were analyzed in both T1 and T2 generations. The control is a stained leaf from a wt plant. (FIG. 8B) Northern blot analysis of SSI2 (Nö), npr1-5, jar1-1 and ssi2 plants treated with water or 50 μM JA. RNA was extracted at 48 hour (h) post treatment and the blot was sequentially probed with SSI2, PDF1.2, and THI2.1. Ethidium bromide-stained rRNA served as a control for gel loading. (FIG. 8C) Northern blot analysis of plants inoculated with spores of Alternaria brassicicola. Mock (M) or fungal (A) inoculations were carried out as described previously (12). RNA was extracted at 72 h post inoculation and PDF1.2 gene expression was monitored. (FIG. 8D) Northern blot analysis of SSI2, npr1-5, jar1-1, NahG, etr1-1 and ssi2 plants treated with methanol or 50 μM MeJA. The plants were placed around a beaker containing methanol or MeJA diluted in methanol and covered with plastic wrap. RNA was prepared from leaves harvested at 48 h post treatment and analyzed for PDF1.2 gene expression.
RNA extraction and northern analyses. […]

Another data set deals with SSI2 gene expression. As to the kind of experiment: SSI2 gene expression after treatment (northern analysis). It counts as in vivo, Arabidopsis. The conditions noted are these: 12, 24 or 48 hours after treating plants.
The nature of data set [2]: in vitro S-ACP desaturase assay.

As for `CCCCCCCCCCCCCCCCCC(=O)O` [18:0, stearic acid], in data set [1] (exogenous application, wt plants), the PR-1 gene expression entry is “does not induce”.
Regarding `c1ccc2snnc2c1` [BTH, benzothiadiazole], in data set [1] (ssi2 NPR1 nahG plants), the “accumulation of PR-1 transcript” value is reported as “increased”. The PR-1 expression entry in data set [1] (ssi2 npr1-5 nahG plants) is reported as “not”.
As for `CC/C=C\C[C@H]1C(=O)CC[C@@H]1CC(=O)O` [JA, jasmonic acid], the PDF1.2 expression entry with PDF1.2 (ssi2 NPR1, ssi2 npr1-5 or jar1-1 plants, 50 μM, 48 h) is “induced only low to undetectable levels”; with PDF1.2 (wt and npr1-5 plants, 50 μM, 48 h), “activated PDF1.2 expression effectively”. Further, the “inhibition of root growth” value with root growth is “unaffected”. In addition, the B. cinerea resistance entry in the data set on B. cinerea is listed as “failed to restore”. The “induced activation of the THI2.1 gene” value in the data set on THI2.1 is listed as “unaffected”. Further, the SSI2 gene expression result with SSI2 gene expression is reported as “did not increase substantially over basal levels”.
Turning to `CC/C=C\CC1C(=O)CCC1CC(=O)OC` (stereo not drawn) [MeJA, methyl JA], the “inhibition of root growth” value with root growth is “unaffected”. Besides, the B. cinerea resistance entry in the data set with B. cinerea is “failed to restore”.
In the case of `O=C(O)c1ccccc1O` [SA, salicylic acid], the “accumulation of the PR gene transcripts” value in data set [1] (exogenous application, ssi2 npr1-5 plant) is on record as “did not further increase”. The SSI2 gene expression entry in the data set on SSI2 gene expression is “did not increase substantially over basal levels”.
Consider `C=C` [ethylene], for which the PDF1.2 expression result with PDF1.2 (10 or 20 parts per million, ssi2 plants) was “not”; in the data set on PDF1.2 (10 or 20 parts per million, wt plants) it was “induced PDF1.2 expression”. Further, the SSI2 gene expression entry in the data set on SSI2 gene expression is reported as “did not increase substantially over basal levels”.
As to “mutant protein: ssi2 mutant S-ACP desaturase with leucine 146 changed to phenylalanine, bacterial-expressed (LRERARELPDDYFVVLVGDMITEEAFPTYQTMLNTLDGVRDETGASPTSWAIWTRAWTAE; (26)..(26) Phe residue instead of Leu present at position corresponding to residue 146 of wild type.; listed as Arabidopsis thaliana)”, the “fold less active than wt” value in data set [2] (16:0 substrate) is approximately 20 fold; in data set [2] (18:0 substrate), “approximately 10 fold”. Also, in data set [2] (in contrast to the wt), the “18:16 substrate preference ratio and Δ^9 regiospecificity” value was “unaltered”. For the same molecule, in data set [2] (overall summary), the “activity lower than that of the wt enzyme” value is 10-20 fold.

B1: Wt SSI2: wild-type Arabidopsis SSI2 stearoyl-ACP desaturase (SEQ ID NO:3), expressed in Escherichia coli and purified (protein, listed as Arabidopsis thaliana)
chain: MALKFNPLVASQPYKFPSSTRPPTPSFRSPKFLCLASSSPALSSGPKEVESLKKPFTPPREVHVQVLHSMPPQKIEIFKSMENWAEENLLIHLKDVEKSWQPQDFLPDPASDGFEDQVRELRERARELPDDYFVVLVGDMITEEALPTYQTMLNTLDGVRDETGASPTSWAIWTRAWTAEENRHGDLLNKYLYLSGRVDMRQIEKTIQYLIGSGMDPRTENNPYLGFIYTSFQERATFISHGNTARQAKEHGDIKLAQICGTIAADEKRHETAYTKIVEKLFEIDPDGTVMAFADMMRKKISMPAHLMYDGRNDNLFDNFSSVAQRLGVYTAKDYADILEFLVGRWKIQDLTGLSGEGNKAQDYLCGLAPRIKRLDERAQARAKKGPKIPFSWIHDREVQL
Molecule B1 came in with a specific activity in data set [2] (purified enzyme expressed in Escherichia coli) of approximately 800 nm/min/mg.
